Experimental findings from US5723606A, “Condensed benzazepine derivative and pharmaceutical composition thereof” (priority 1993, dated 1998) are described below.

Counter-ions that a name gives are not always drawn. Like-named read-outs stand apart in the source and are kept apart here.

Assay [1] concerns the target T1, arginine vasopressin V1 receptor (Rattus norvegicus, UniProt P30560).
T1 construct: A rat liver membrane sample was prepared; from tissue; host or cells: rat liver membranes
Nature of the assay: V1 receptor binding assay. To be noted: for antagonism on V1 receptor (in words): compared with OPC-31260 and OPC-21268, cf. Table 1. The procedure: Usefulness of the compounds of the present invention was confirmed by the following tests. (1) V1 receptor binding assay
A rat liver membrane sample was prepared in accordance with the method of Nakamura et al. (J. Biol. Chem., 258, 9283 (1983)), and [^3 H]-Arg-vasopressin (2 nM, specific activity =75.8 Ci/mmol), 70 μg of the membrane sample and each drug to be tested (10^-8 to 10^-4 M) were incubated at 30° C. for 30 minutes in 250 μl of 100 mM Tris-HCl buffer (pH 8.0) containing 5 mM magnesium chloride, 1mM ethylenediaminetetraacetic acid (EDTA) and 0.1% bovine serum albumin (BSA). Thereafter, the incubation solution was sucked off using a cell harvester and free ligand and excess buffer were removed by passing the reaction mixture through a glass filter (GF/B), thereby trapping receptor-bound labeled ligand on the glass filter. The glass filter was taken out, thoroughly dried and then mixed with a liquid scintillation cocktail, and the amount of the membrane-bound [^3 H]-vasopressin was measured using a liquid scintillation counter to calculate the inhibition ratio by the following formula. [formula] C1 : amount of [^3 H]-vasopressin bound to the membrane in the coexistence of known amount of each drug to be tested and [^3 H]-vasopressin
C0 : amount of [^3 H]-vasopressin bound to the membrane when the drug to be tested was not added
B1 : amount of [^3 H]-vasopressin bound to the membrane in the presence of excess vasopressin (10^-6 M)
[formula] [L]: concentration of radioactive ligand KD: dissociation constant calculated from Scatchard plot
Negative logarithm of the thus calculated value was used as pKi value.

Assay [2] addresses arginine vasopressin V2 receptor (Oryctolagus cuniculus, UniProt G1TA00). As to the kind of experiment: V2 receptor binding assay. Details: species or system rabbit. To be noted: for antagonism on V2 receptor (in words): compared with OPC-31260 and OPC-21268, cf. Table 1.
Assay [3] relates to V1 receptor. Nature of the assay: V1 antagonism in conscious rats (oral administration). To be noted: 1 mg/kg oral, from 30 minutes to 6 hours after administration, AVP 30 mU/kg i.v. Format: in vivo, rat.
For assay [4], the system named is V2 receptor. As to the kind of experiment: V2 antagonism (water diuresis) in conscious rats (oral administration). Format: in vivo, rat. On the procedure: (4) V2 antagonism (water diuresis) in conscious rats (oral administration)
Each compound to be tested was suspended in 0.5% methylcellulose aqueous solution and orally administered in a dose of 3 mg/kg to male Wister rats (body weight, 270 to 300 g) which had been subjected to fasting with no water for 16 to 20 hours. Using a metabolic cage, urine samples were collected just after the administration of each test sample and until 4 hours after the administration to measure the amount of urine.

Setting [5] is: rat liver membrane, [3H]-Arg-vasopressin 2 nM, read-out: Binding activity on arginine vasopressin V1 receptor (pki) (converted).

arginine vasopressin V2 receptor, sequence (G1TA00 78-446): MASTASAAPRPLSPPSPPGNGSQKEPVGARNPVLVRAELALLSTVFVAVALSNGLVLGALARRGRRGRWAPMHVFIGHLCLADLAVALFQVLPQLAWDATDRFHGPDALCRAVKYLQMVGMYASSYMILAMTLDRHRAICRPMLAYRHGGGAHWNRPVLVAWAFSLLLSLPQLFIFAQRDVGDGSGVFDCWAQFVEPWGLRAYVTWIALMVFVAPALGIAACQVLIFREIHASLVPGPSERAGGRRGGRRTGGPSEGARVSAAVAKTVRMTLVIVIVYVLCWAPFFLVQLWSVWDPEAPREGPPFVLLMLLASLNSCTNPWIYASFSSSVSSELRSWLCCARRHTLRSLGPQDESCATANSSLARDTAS
T1 sequence (P30560 whole entry): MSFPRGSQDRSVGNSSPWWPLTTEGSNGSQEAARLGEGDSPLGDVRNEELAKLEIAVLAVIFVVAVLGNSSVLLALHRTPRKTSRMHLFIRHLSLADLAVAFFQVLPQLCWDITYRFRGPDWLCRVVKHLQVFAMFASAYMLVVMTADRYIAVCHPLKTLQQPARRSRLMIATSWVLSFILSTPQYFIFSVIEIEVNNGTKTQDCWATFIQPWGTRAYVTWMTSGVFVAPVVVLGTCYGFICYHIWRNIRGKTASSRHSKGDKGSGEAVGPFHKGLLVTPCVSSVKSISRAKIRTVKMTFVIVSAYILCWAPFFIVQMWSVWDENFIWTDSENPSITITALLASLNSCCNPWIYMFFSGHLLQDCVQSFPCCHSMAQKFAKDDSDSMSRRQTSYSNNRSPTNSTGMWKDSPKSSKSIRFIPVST

For the compound `Cc1ccc(-c2ccccc2C(=O)Nc2ccc(C(=O)N3CCc4sc(NC(=N)N)nc4-c4ccccc43)cc2)cc1` [Example 4, 4'-[(2-guanidino-5,6-dihydro-4H-thiazolo[5,4-d][1]benzazepin-6-yl)carbonyl]-2-(4-methylphenyl)benzanilide hydrobromate], the Ki in assay [1] (setting [5]) is 4.37 nM.
Turning to `CCCc1nc2c([nH]1)-c1ccccc1N(C(=O)c1ccc(NC(=O)c3ccccc3-c3ccccc3)cc1)CC2.Cl` [Example 21, 4'-[(2-propyl-1,4,5,6-tetrahydroimidazo[4,5-d][1]benzazepin-6-yl)carbonyl]-2-phenylbenzanilide hydrochloride], the “antagonism on V2 receptor (in words)” value in assay [2] is recorded as “excellent antagonisms”. Besides, the “Pressure increase by AVP (diastolic blood pressure, pre-dose increase = 100%)” value in assay [3] is recorded as not above 50%. The “amount of urine relative to the solvent-administered group” value in assay [4] (po, 3 mg/kg) is given as 8-10 times; in assay [4] (po, 3 mg/kg, 2 h), 47-95 times. For the same compound, the “antagonism on V1 receptor (in words)” value in assay [1] was “excellent antagonisms”. Further, the Ki in assay [1] (setting [5]) was 1.82 nM.
Consider `O=C(Nc1ccc(C(=O)N2CCc3sc(Cc4cccnc4)nc3-c3ccccc32)cc1)c1ccccc1-c1ccccc1` [Example 8, 4'-[[2-(3-pyridylmethyl)-5,6-dihydro-4H-thiazolo[5,4-d][1]benzazepin-6-yl)carbonyl]-2-phenylbenzanilide hydrochloride], for which, in assay [1] (setting [5]), the Ki is 18.2 nM.
Regarding `Cc1nc2c(o1)-c1ccccc1N(C(=O)c1ccc(NC(=O)c3ccccc3-c3ccccc3)cc1)CC2` [Example 18(1), 4'-[(2-Methyl-5,6-dihydro-4H-oxazolo[4,5-d][1]benzazepin-6-yl)carbonyl]-2-phenylbenzanilide], the Ki in assay [1] (setting [5]) was 4.27 nM.
As to `NCCc1nc2c(s1)CCN(C(=O)c1ccc(NC(=O)c3ccccc3-c3ccccc3)cc1)c1ccccc1-2` [Example 15, 4'-[(2-aminoethyl-5,6-dihydro-4H-thiazolo[5,4-d][1]benzazepin-6-yl)carbonyl]-2-phenylbenzanilide hydrochloride], in assay [1], the Ki is 1.23 nM.
In the case of `CCc1nc2c([nH]1)-c1ccccc1N(C(=O)c1ccc(NC(=O)c3ccccc3-c3ccccc3)cc1)CC2.Cl` [Example 20, 4'-[(2-ethyl-1,4,5,6-tetrahydroimidazo[4,5-d][1]benzazepin-6-yl)carbonyl]-2-phenylbenzanilide hydrochloride], the “antagonism on V2 receptor (in words)” value in assay [2] was “excellent antagonisms”. Further, the “amount of urine relative to the solvent-administered group” value in assay [4] (po, 3 mg/kg) was 8-10 times; in assay [4] (po, 3 mg/kg, 2 h), 47-95 times. The “antagonism on V1 receptor (in words)” value in assay [1] is “excellent antagonisms”. In addition, in assay [1] (setting [5]), the Ki is 0.661 nM.
On to `CC(C)O.Cl.NCC(=O)Nc1nc2c(s1)CCN(C(=O)c1ccc(NC(=O)c3ccccc3-c3ccccc3)cc1)c1ccccc1-2` [Example 17, 4'-[(2-glycylamino-5,6-dihydro-4H-thiazolo[5,4-d][1]benzazepin-6-yl)carbonyl]-2-phenylbenzanilide 2-propylalcohol hydrochloride], for which the “antagonism on V2 receptor (in words)” value in assay [2] was “excellent antagonisms”. Further, the “antagonism on V1 receptor (in words)” value in assay [1] is reported as “excellent antagonisms”. Besides, the Ki in assay [1] (setting [5]) was 0.912 nM.
Consider `Cc1nc2c([nH]1)-c1ccccc1N(C(=O)c1ccc(NC(=O)c3ccccc3-c3ccccc3)cc1)CC2.Cl` [Example 18(2), 4'-[(2-methyl-1,4,5,6-tetrahydroimidazo[4,5-d][1]benzazepin-6-yl)carbonyl]-2-phenylbenzanilide hydrochloride], for which, in assay [2], the “antagonism on V2 receptor (in words)” value is “excellent antagonisms”. The “Pressure increase by AVP (diastolic blood pressure, pre-dose increase = 100%)” value in assay [3] was not above 50%. Moreover, in assay [4] (po, 3 mg/kg), the “amount of urine relative to the solvent-administered group” value was 8-10 times. For the same compound, the “amount of urine relative to the solvent-administered group” value in assay [4] (po, 3 mg/kg, 2 h) was 47-95 times. Further, in assay [1], the Ki was 0.891 nM and the “antagonism on V1 receptor (in words)” value is reported as “excellent antagonisms”.
As for `Cc1ccccc1C(=O)Nc1ccc(C(=O)N2CCCC(N(C)C)c3ccccc32)cc1` (centres unmarked) [(1), reference compound], the “Binding activity on arginine vasopressin V2 receptor (pki)” value in assay [2] (rabbit renal medulla membrane, [3H]-Arg-vasopressin 2 nM) is on record as 8.01. The “amount of urine relative to the solvent-administered group” value is given as “almost the same as that in the solvent-administered group” in assay [4] (3 mg/kg oral, from 2 hours to 4 hours after administration, fasted conscious rats) and 11 times in assay [4] (po, 3 mg/kg, 2 h). The “Binding activity on arginine vasopressin V1 receptor (pki)” value in assay [1] (rat liver membrane, [3H]-Arg-vasopressin 2 nM) is 6.71.
Regarding `CN(C)CCNc1nc2c(s1)CCN(C(=O)c1ccc(NC(=O)c3ccccc3-c3ccccc3)cc1)c1ccccc1-2` [Example 10, 4'-[(2-dimethylaminoethylamino-5,6-dihydro-4H-thiazolo[5,4-d][1]benzazepin-6-yl)carbonyl]-2-phenylbenzanilide.2 HCl], in assay [1] (setting [5]), the Ki was 2.45 nM.
The same measure, in the same setting: the value for `N=C(N)Nc1nc2c(s1)CCN(C(=O)c1ccc(NC(=O)c3ccccc3-c3ccccc3)cc1)c1ccccc1-2` [Example 2, 4'-[(2-guanidino-5,6-dihydro-4H-thiazolo[5,4-d][1]benzazepin-6-yl)carbonyl]-2-phenylbenzanilide hydrobromate] was 1.51 nM; that for `Nc1nc2c(s1)CCN(C(=O)c1ccc(NC(=O)c3ccccc3-c3ccccc3)cc1)c1ccccc1-2` [Example 1, 4'-[(2-amino-5,6-dihydro-4H-thiazolo[5,4-d][1]benzazepin-6-yl)carbonyl]-2-phenylbenzanilide hydrobromate] was 4.68 nM.
Regarding `Cc1nc2c([nH]1)-c1ccccc1N(C(=O)c1ccc(NC(=O)c3ccccc3OC(C)C)cc1)CC2` [Example 27, 2-isopropoxy-4'-[(2-methyl-1,4,5,6-tetrahydroimidazo[4,5-d][1]benzazepin-6-yl)carbonyl]benzanilide hydrochloride], the Ki in assay [1] (setting [5]) was 6.17 nM.
Still for that read-out and setting: for `Cc1nc2c([nH]1)-c1ccccc1N(C(=O)c1ccc(NC(=O)c3ccccc3C)cc1)CC2` [Example 24, 2-methyl-4'-[(2-methyl-1,4,5,6-tetrahydroimidazo[4,5-d][1]benzazepin-6-yl)carbonyl]benzanilide hydrochloride] the value was 17 nM.
As to `NCCCCc1nc2c([nH]1)-c1ccccc1N(C(=O)c1ccc(NC(=O)c3ccccc3-c3ccccc3)cc1)CC2` [Example 37, 4'-[[2-(4-aminobutyl)-1,4,5,6-tetrahydroimidazo[4,5-d][1]benzazepin-6-yl]carbonyl]-2-phenylbenzanilide.2 HCl], the “antagonism on V2 receptor (in words)” value in assay [2] is on record as “excellent antagonisms”. Moreover, the “antagonism on V1 receptor (in words)” value in assay [1] is on record as “excellent antagonisms”. Besides, the Ki in assay [1] (setting [5]) is 0.324 nM.
In the case of `Cl.O=C(Nc1ccc(C(=O)N2CCc3nc(C4CC4)[nH]c3-c3ccccc32)cc1)c1ccccc1-c1ccccc1` [Example 23, 4'-[(2-cyclopropyl-1,4,5,6-tetrahydroimidazo[4,5-d][1]benzazepin-6-yl)carbonyl]-2-phenylbenzanilide hydrochloride], the “antagonism on V2 receptor (in words)” value in assay [2] is listed as “excellent antagonisms”. Besides, in assay [3], the “Pressure increase by AVP (diastolic blood pressure, pre-dose increase = 100%)” value is not above 50%. Further, the “amount of urine relative to the solvent-administered group” value is given as 8-10 times in assay [4] (po, 3 mg/kg) and 47-95 times in assay [4] (po, 3 mg/kg, 2 h). For the same compound, the “antagonism on V1 receptor (in words)” value in assay [1] is “excellent antagonisms”.
In the case of `Cc1nc(Cc2nc3c(s2)CCN(C(=O)c2ccc(NC(=O)c4ccccc4-c4ccccc4)cc2)c2ccccc2-3)c[nH]1` [Example 6, 4'-[[2-[4-(2-methylimidazolyl)methyl]-5,6-dihydro-4H-thiazolo[5,4-d][1]benzazepin-6-yl)carbonyl]-2-phenylbenzanilide.2HCl], in assay [1] (setting [5]), the Ki was 11.2 nM.
The same measure, in the same setting: for `CN(C)CCCc1nc2c(s1)CCN(C(=O)c1ccc(NC(=O)c3ccccc3-c3ccccc3)cc1)c1ccccc1-2` [Example 12, 4'-[[2-(3-dimethylaminopropyl)-5,6-dihydro-4H-thiazolo[5,4-d][1]benzazepin-6-yl)carbonyl]-2-phenylbenzanilide hydrochloride] the value was 3.02 nM; for `Cc1nc2c([nH]1)-c1ccccc1N(C(=O)c1ccc(NC(=O)C3(c4ccccc4)CCCC3)cc1)CC2` [Example 38, N-[4-[(2-methyl-1,4,5,6-tetrahydroimidazo[4,5-d][1]benzazepin-6-yl)carbonyl]phenylcyclopentanecarboxamido hydrochloride], 5.75 nM.
